Data on 88 molecules can be found in ChEMBL document CHEMBL5604061, “ASAP - WNV NS2B-NS3 protease fluorescence dose response” (2024).

pIC50: −log10 of the molar value. Values joined by “and” are separate entries in the source; they are usually repeats but may differ in a detail not shown here. Equal entries are not always repeated.

For this assay, the target named is T1, NS3 (West Nile virus, UniProt K4FQI5).
T1 sequence (K4FQI5 whole entry): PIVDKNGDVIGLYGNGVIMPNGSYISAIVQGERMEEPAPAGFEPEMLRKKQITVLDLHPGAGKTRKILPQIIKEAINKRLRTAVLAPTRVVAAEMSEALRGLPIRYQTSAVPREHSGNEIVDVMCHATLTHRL
As to the kind of experiment: Functional biochemical assay to identify treatments for viral infectious disease that targets West Nile NS2B-NS3 protease. Utilizing a direct enzyme activity measurement method, reading the fluorescence intensity is used to characterize the relative potency of inhibitors as IC50. Also noted: species or system NY-99.
Broadly, the pIC50 is the IC50 on a negative log10 scale, so that one unit is a factor of ten. Lower therefore signals a large IC50. In turn, `O=C1c2c(O)ccc([N+](=O)[O-])c2C(=O)c2c([N+](=O)[O-])ccc(O)c21` had a pIC50 of less than 4.00.

For the molecule `N=C(N)NCCC[C@H](NC(=O)[C@H](Cc1ccc(CN)cc1)NC(=O)c1ccccc1)B(O)O`, the pIC50 is 7.19 and 6.66.

`CCCCCC(=O)N[C@H](C(=O)NCc1cccc(CN)c1)c1ccc(OCc2ccccc2)cc1` showed a negative logarithm of the IC50 (pIC50) of 4.14.

Consider `CCCCCC(=O)N[C@H](C(=O)Nc1ccc2[nH]ncc2c1)c1ccc(OCc2ccccc2)cc1`, for which the pIC50 was less than 4.00.

`CCCCCC(=O)N[C@H](C(=O)Nc1ccc(C(N)=O)cc1)c1ccc(OCc2ccccc2)cc1` gave a pIC50 of less than 4.00.

`NCc1ccc(-c2ncc(OCC3CCNCC3)nc2-c2ccc(-c3ccoc3)cc2)cc1` gave a pIC50 of 4.01.

The molecule `CCCC[C@H](NC(C)=O)C(=O)N[C@H](C(=O)NCc1ccc(C(N)=O)cc1)c1ccc(OCc2ccccc2)cc1` had a negative logarithm of the IC50 (pIC50) of less than 4.00.

For the molecule `NCc1ccc(-c2ncc(OCC3CCNCC3)nc2-c2ccc(C3CCOCC3)cc2)cc1`, the pIC50 is less than 4.00.

Molecule `CCCCCC(=O)N[C@H](C(=O)N1CCCCC1)c1ccc(OCc2ccccc2)cc1` had a pIC50 of less than 4.00.

`O=C(Nc1ccc2c(c1)B(O)OC2)c1cccc(OCc2c(Cl)cccc2Cl)c1` had a negative logarithm of the IC50 (pIC50) of less than 4.00.

For `O=C(Nc1ccc2c(c1)CNCC2)c1cc(Cl)cc2[nH]ncc12`, the negative logarithm of the IC50 (pIC50) was 4.58.

Take `CC(C)(C)c1cc(Br)cc(C(=O)Nc2ccc3c(c2)CNC3)c1`: the pIC50 is 4.05.

Molecule `CN1Cc2ccc(NC(=O)c3cc(Cl)cc4[nH]ncc34)cc2C1` gave a pIC50 of less than 4.00.

In turn, `O=C(Nc1ccc2c(c1)CNC2)c1cc(Br)cc2ccccc12` showed a pIC50 of 4.24.

Molecule `O=C(Nc1ccc2c(c1)CNC2)c1cc(Cl)cc2c1CCC2` gave a pIC50 of 4.64.

For `O=C1Cc2c(cccc2C(=O)Nc2ccc3c(c2)CNC3)N1`, the pIC50 is 5.21.

In the case of `CC(C)c1cc(Br)cc(C(=O)Nc2ccc3c(c2)CNC3)c1`, the pIC50 was 4.03.

Consider `O=C(Nc1cc(Cl)cc(C(=O)Nc2ccc3c(c2)CNC3)c1)OCc1ccccc1`, for which the pIC50 was 4.75 and 4.31 and 4.60.

Molecule `NCc1cc(/C=C/C(=O)O)cc(NC(=O)c2cc(Cl)cc(NC(=O)OCc3ccccc3)c2)c1` gave a pIC50 of 4.07.

As to `N=C(N)NCCc1ccccc1B(O)O`, the pIC50 was less than 4.00.

Molecule `NCc1cccc(NC(=O)c2cc(Cl)cc3c2cnn3CC2CC2)c1` gave a pIC50 of 4.17.

`O=C(Nc1cc(Cl)cc([C@H](C#CCO)Nc2cccc(-c3nn[nH]n3)c2)c1)OCc1ccccc1` gave a pIC50 of 4.47.

`NCc1cccc(NC(=O)c2cc(Cl)cc(-n3cccc3)c2)c1`: the pIC50 is less than 4.00.

In turn, `N=C(N)NCCc1ccc(OC(=O)Nc2ccccc2)cc1` showed a pIC50 of less than 4.00.

The molecule `NCc1cccc([C@H]2C[C@@H]2c2cc(Cl)cc(NC(=O)OCc3ccccc3)c2)c1` had a pIC50 of 4.73.

For `N[C@H]1Cc2ccc(NC(=O)c3cc(Cl)cc(NC(=O)OCc4ccccc4)c3)cc2C1`, the pIC50 was 4.45.

`N#C[C@H](Nc1cccc(-c2nn[nH]n2)c1)c1cc(Cl)cc(NC(=O)OCc2ccccc2)c1`: the pIC50 was 4.54.

`O=C(Nc1ccc2c(c1)CNC2)c1cc(Cl)cc2[nH]ncc12` had a pIC50 of 5.51.

`O=C(NS(=O)(=O)C1CC1)c1cc(Cl)ccc1NS(=O)(=O)c1ccc(Oc2ccccc2Cl)cc1` had a pIC50 of 4.12.

For `N#C[C@H](Nc1ccc2c(c1)CNC2)c1cc(Cl)cc2[nH]ncc12`, the pIC50 is 4.70.

As for `NCc1cccc(NC(=O)C[C@@H](NC(=O)OCc2ccccc2)c2ccc(OCc3ccccc3)cc2)c1`, the pIC50 is 5.21.

Take `NCc1cccc(NC(=O)[C@@H](NC(=O)OCc2ccccc2)c2ccc(OCc3ccccc3)cc2)c1`: the negative-log IC50 (pIC50) is 5.16.

Consider `O=C(Nc1cc(Cl)cc(C(=O)Nc2cccc([C@H]3C[C@H]3C(=O)O)c2)c1)OCc1ccccc1`, for which the pIC50 was 4.09.

In turn, `NCc1cccc(NC(=O)C[C@H](NC(=O)OCc2ccccc2)c2ccc(OCc3ccccc3)c(Br)c2)c1` showed a pIC50 of 5.06.

`NCc1cccc(NC(=O)c2cc(Cl)cc(CN)c2)c1`: the pIC50 is 5.01.

In turn, `CCn1c(=O)c(N2CC[C@@H](CO)C2)nc2ccccc21` had a pIC50 of less than 4.00.

With `NCc1cccc(NC(=O)[C@H](NC(=O)OCc2ccccc2)c2ccc(Br)c(Cl)c2)c1`, the pIC50 was 5.18.

Regarding `NCCc1ccc([C@H]2C[C@@H]2c2cc(Cl)cc(NC(=O)OCc3ccccc3)c2)cc1`, the negative logarithm of the IC50 (pIC50) was 5.15.

Regarding `COc1cc(Cc2c(-c3ccc(F)cc3)noc2C)nc(N2CCNCC2)n1`, the pIC50 is 4.17.

With `c1ccc2c(CN3CCC(c4cscn4)CC3)c[nH]c2c1`, the pIC50 was less than 4.00.

`N=C(N)Nc1ccc(NC(=O)Oc2ccccc2)cc1`: the pIC50 was less than 4.00.

In turn, `N=C(N)Nc1ccc(OC(=O)Nc2ccccc2)cc1` showed a pIC50 of less than 4.00.

With `CCOc1cccc(-c2ccc(S(=O)(=O)Nc3ccc(Cl)cc3C(=O)O)cc2)c1`, the pIC50 was 4.90.

`NCCc1ccc(NC(=O)c2cc(Cl)cc(NC(=O)OCc3ccccc3)c2)cc1` had a pIC50 of 4.80.

As for `O=C(O)c1cc(Oc2ccc(F)cc2)c(F)cc1NS(=O)(=O)c1ccc(Oc2ccccc2Cl)cc1`, the pIC50 was 5.47.

The molecule `NCCc1cccc(NC(=O)c2cc(Cl)cc(NC(=O)OCc3ccccc3)c2)c1` showed a pIC50 of 4.63.

For the molecule `c1ccc2sc(C3CCN(Cc4c[nH]c5ccccc45)CC3)nc2c1`, the pIC50 is less than 4.00.

`N=C(N)NCCc1ccc(NC(=O)Oc2ccccc2)cc1` showed a pIC50 of 4.14.

As to `C=CC[C@H](Nc1cc(Cl)cc(NC(=O)OCc2ccccc2)c1)c1cccc(-c2nn[nH]n2)c1`, the pIC50 was 4.84.

On to `CNC(=O)[C@H](Nc1cc(CN)cc(C(=O)O)c1)c1cc(Cl)cc(C2CC2)c1`, for which the negative-log IC50 (pIC50) was 5.83.

With `CC(C)CNC(=O)c1cc(Cl)c(F)cc1NS(=O)(=O)c1ccc(Oc2ccccc2Cl)cc1`, the negative-log IC50 (pIC50) was 4.60.

Molecule `CCNC(=O)Nc1cc(Cl)cc(C(=O)Nc2ccc3c(c2)CNCCO3)c1` had a negative-log IC50 (pIC50) of 4.81.

`CC(C)CNC(=O)c1cc(Cl)ccc1NS(=O)(=O)c1ccc(Oc2ccccc2Cl)cc1` gave a pIC50 of less than 4.00.

Turning to `NCc1cccc(CNC(=O)[C@H](NC(=O)OCc2ccccc2)c2ccc(OCc3ccccc3)cc2)c1`, the pIC50 was 4.88.

In the case of `C[C@@H](Oc1ccc(S(=O)(=O)Nc2ccc(Cl)cc2C(=O)O)cc1)c1ccccc1F`, the negative logarithm of the IC50 (pIC50) is 4.70.

Regarding `NCc1cccc(NC(=O)c2cc(Br)cc3[nH]ccc23)c1`, the pIC50 is less than 4.00.

For `O=C(O)c1cc2c(cc1NS(=O)(=O)c1ccc(Oc3ccccc3Cl)cc1)CCC2`, the pIC50 was 4.78.

On to `CNC(=O)[C@H](Nc1cc(Cl)cc(NC(=O)OCc2ccccc2)c1)c1cccc(-c2nn[nH]n2)c1`, for which the pIC50 was less than 4.00.

Molecule `CS(=O)(=O)NC(=O)c1cc(Cl)ccc1NS(=O)(=O)c1ccc(Oc2ccccc2Cl)cc1` had a pIC50 of 4.13.

`OCC#C[C@H](Nc1ccc2c(c1)CNC2)c1cc(Cl)cc2[nH]ncc12` gave a pIC50 of 4.65.

Take `NCc1cccc(NC(=O)c2cc(Cl)cc(NC(=O)OCc3ccccc3)c2)c1`: the pIC50 was 4.64.

On to `c1cc(C2CCN(Cc3c[nH]c4ccccc34)CC2)c2ccncc2c1`, for which the pIC50 was less than 4.00.

In turn, `CNC(=O)[C@H](Nc1cccc(CN)c1)c1cc(Cl)cc(NC(=O)OCc2ccccc2)c1` showed a negative logarithm of the IC50 (pIC50) of 5.72.

In turn, `O=C(NCC(F)(F)F)c1cc(Cl)c(F)cc1NS(=O)(=O)c1ccc(Oc2ccccc2Cl)cc1` had a pIC50 of 5.03.

In turn, `c1ccc2c(CN3CCC(c4c[nH]c5cccnc45)CC3)c[nH]c2c1` showed a pIC50 of less than 4.00.

In turn, `O=C(O)c1cc(Cl)c(F)cc1S(=O)(=O)Nc1ccc(Oc2ccccc2Cl)cc1` showed a pIC50 of 4.49.

In turn, `NCc1cccc(NC(=O)[C@H]2[C@H]3CCCCC[C@H]3[C@H]2NC(=O)OCc2ccccc2)c1` had a pIC50 of 4.33.

In turn, `CCc1cc(C(=O)Nc2cccc(-n3nn[nH]c3=O)c2)sc1-c1ccc(Cl)cc1` showed a pIC50 of 4.70.

`CCn1c(=O)c(N2C[C@H]3CCS(=O)(=O)[C@H]3C2)nc2ccccc21` had a pIC50 of less than 4.00.

Regarding `Cc1c(C(=O)Nc2cc(CCCN)ccn2)cc(C2CC2)n1C`, the negative logarithm of the IC50 (pIC50) is 4.23.

`Cc1cc(-c2ccc([C@@H](NC(=O)OCc3ccccc3)C(=O)Nc3cccc(CN)c3)cc2)cs1`: the pIC50 was 5.47.

`O=C(O)c1cc(Cl)ccc1NS(=O)(=O)c1ccc(-c2ccc(F)cc2)cc1` showed a pIC50 of 4.53.

As for `N=C(N)NCCc1cccc(B(O)O)c1`, the pIC50 is less than 4.00.

For the molecule `N=C(N)NCc1ccc(NC(=O)Oc2ccccc2)cc1`, the negative-log IC50 (pIC50) was less than 4.00.

As for `O=C(Nc1cc(Cl)cc(C(=O)Nc2ccc3c(c2)CCNC3)c1)OCc1ccccc1`, the pIC50 is 4.31.

Regarding `N=C(N)NCc1ccc(OC(=O)Nc2ccccc2)cc1`, the pIC50 was less than 4.00.

The molecule `CNC(=O)c1cc(Cl)c(F)cc1NS(=O)(=O)c1ccc(Oc2ccccc2Cl)cc1` showed a pIC50 of 4.51.

On to `NCc1cccc(NC(=O)[C@H](NC(=O)OCc2ccccc2)C2CCC(c3ccccc3)CC2)c1` (stereo partly drawn), for which the pIC50 is 5.08.

For `Cc1ccc(NC(=O)c2cc(Cl)cc(NC(=O)OCc3ccccc3)c2)cc1CN`, the pIC50 is 4.22.

For the molecule `NS(=O)(=O)c1ccc(C2CCN(Cc3c[nH]c4ccccc34)CC2)cc1`, the pIC50 was less than 4.00.

`NCc1cc(Cl)cc(C(=O)Nc2ccc3c(c2)CNC3)c1` gave a negative-log IC50 (pIC50) of 5.00.

Regarding `Cc1[nH]c2ccccc2c1CN1CCC(c2c[nH]c3ncccc23)CC1`, the pIC50 was less than 4.00.

`N[C@H]1CCc2cc(NC(=O)c3cc(Cl)cc(NC(=O)OCc4ccccc4)c3)ccc21` showed a pIC50 of 4.35.

`Cc1[nH]c2ccccc2c1CN1CCC(c2nc3ccccc3s2)CC1` had a pIC50 of less than 4.00.

For the molecule `O=C(O)c1cc(Cl)ccc1S(=O)(=O)NC1CCN(c2nc(C3CC3)cc(C(F)(F)F)n2)CC1`, the pIC50 is 4.31.

Molecule `CNC(=O)[C@H](Nc1cc(CN)cc(-c2nn[nH]n2)c1)c1cc(Cl)cc(C2CC2)c1` had a pIC50 of 6.00.

As for `O=C(Nc1ccc(F)nc1)Oc1ccccc1`, the negative-log IC50 (pIC50) was less than 4.00.

Turning to `O=C(Nc1cc(Cl)cc(C(=O)Nc2cccc(-n3nn[nH]c3=O)c2)c1)OCc1ccccc1`, the pIC50 was 4.48.
